Assay results: paper PMC12301332, “Biased antagonism of a series of bicyclic CXCR2 intracellular allosteric modulators” (Frontiers in Pharmacology, 2025)
One block for each molecule: values may come before it.

Key:
CXCR2 [1] = target: T1, CXCR2 (Homo sapiens, UniProt P25025); assay: NanoBRET β-arrestin1 recruitment inhibition assay (NanoLux) in HEK293A cells; format: cell-based; conditions: normalized to Imax of navarixin = 100%, n = 3
T1 construct: expressed in transfected cells
T1 sequence (P25025 1-360): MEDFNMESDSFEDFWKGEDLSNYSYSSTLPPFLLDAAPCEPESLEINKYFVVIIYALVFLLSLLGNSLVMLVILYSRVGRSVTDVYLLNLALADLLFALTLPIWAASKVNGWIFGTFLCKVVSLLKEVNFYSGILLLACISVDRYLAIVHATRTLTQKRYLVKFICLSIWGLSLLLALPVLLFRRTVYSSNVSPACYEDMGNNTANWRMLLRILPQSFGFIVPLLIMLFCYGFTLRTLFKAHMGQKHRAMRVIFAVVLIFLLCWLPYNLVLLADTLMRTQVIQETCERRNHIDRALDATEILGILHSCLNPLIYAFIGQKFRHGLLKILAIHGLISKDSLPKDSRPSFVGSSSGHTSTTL
Method: Cells were trypsinized and resuspended at 3 × 10^5 cell/mL in the growth medium, whereafter they were incubated for 2 hours at RT. Cells were transfected in suspension using FuGENE® HD Transfection Reagent at a 3:1 reagent to DNA ratio in Opti-MEMTM I Reduced-Serum Medium, with the final DNA concentration of 1 μg/μL. The transfection mixture was incubated for 10 min at RT before adding it to the cell suspension. Transfected cells were seeded at 3.0 × 10^4 cells/well in a white, clear, flat-bottom 96-well plate coated with 100 μg/mL poly-D-lysin ([…], Sigma Aldrich) and incubated for 48 h at 37°C and 5% CO2. HEK293A cells were transiently co-transfected with plasmids encoding β-arrestin1 protein tagged with NLuc (donor) and CXCR2 protein tagged with mNeonGreen (mNG) acceptor in a 1:10 donor to acceptor ratio, as described previously ([Luís et al., 2022]). All subsequent steps are identical to those in “NanoBRET-based G protein activation inhibition assay,” which are described above. Measurements were acquired using a 440- to 480-nm donor emission filter (#0200-6179, Molecular Devices) and a 515- to 575-nm acceptor emission filter (#0200-6203, Molecular Devices) BRET ratios were extracted from ScreenWorks software (Molecular Devices) and represent the ratio between the acceptor emission of […]2 or mNG (G protein or β-arrestin recruitment, respectively) and NLuc donor emission. The basal BRET ratio was defined as the average BRET ratio of the five consecutive readings preceding ligand addition. Changes in BRET values post ligand administration (ΔBRET) were calculated for each well as a percentage difference to the previously defined basal BRET ratio. Average ΔBRET values were baseline corrected by subtracting the average negative control BRET ratio (unstimulated condition). […] AUCs were normalized to the positive control (stimulated condition); whereafter, dose-response curves were fitted to log (inhibitor) vs response (three parameters) in GraphPad 10.2.0 (GraphPad Software). […] Calculation 1: calculation of the BRET signal. • 1. […] NC correctedΔBRET=Δ[…]. • 4. a. Neg AUC of NC correctedΔBRET=Gα activation read out. b. Pos AUC of NC correctedΔBRET=β-arrestin recruitment.

CXCR2 [2] = target: T1, CXCR2; assay: Bias analysis (bias plot, bias index) of β-arrestin1 recruitment inhibition versus Gαi1 activation inhibition, navarixin as reference; format: cell-based; conditions: all ELR+ chemokines; navarixin as reference antagonist
Method: For signaling bias calculations, constraints were set to bottom values equal to zero. The calculated top values generated by nonlinear fit log (inhibitor) vs response (three parameters) in GraphPad 10.2.1 were taken as Imax. […] The bias index values were calculated, as is shown in calculation 2. Briefly, log(Imax/IC50) was calculated. […] Finally, the bias index was calculated by subtracting the ∆log (Imax/IC50) of the tested compound from the stated reference pathway from that of the pathway of interest. […] The statistical significance of H1 was evaluated using a one-sample T-test with Benjamini-Hochberg correction applied for multiple comparisons, whereas H2 was assessed using a one-way ANOVA followed by Tukey’s test.
Bias index=∆LogImax/IC50P1:β−arr1−∆LogImax/IC50P2:Gai1 .
Bias plots are equimolar comparisons between the two pathways of interest.

CXCR2 [3] = target: T1, CXCR2; assay: NanoBRET-based G protein activation inhibition assay (REGA-SIGN Gαi1 dissociation) in HEK293A.CXCR2 cells; format: cell-based; conditions: normalized to Imax of navarixin = 100%, n = 3
Method: Cells were trypsinized and resuspended at 3 × 10^5 cell/mL in the growth medium, whereafter they were incubated for 2 hours at RT. Cells were transfected in suspension using FuGENE® HD Transfection Reagent at a 3:1 reagent to DNA ratio in Opti-MEMTM I Reduced-Serum Medium, with the final DNA concentration of 1 μg/μL. The transfection mixture was incubated for 10 min at RT before adding it to the cell suspension. Transfected cells were seeded at 3.0 × 10^4 cells/well in a white, clear, flat-bottom 96-well plate coated with 100 μg/mL poly-D-lysin ([…], Sigma Aldrich) and incubated for 48 h at 37°C and 5% CO2. […] (2023)]. Following the 48-h incubation period, cells were washed with the assay buffer. Compounds were serially diluted in 1:500 Nano-Glo® Vivazine^TM working solution (#N2581, Promega), and 90 μL of compound/Vivazine mix was added, followed by incubation for 45 min at 37°C and 5% CO2. Plates were transferred to the FLIPR Penta system (Molecular Devices) at 37°C, and all steps onward are automated and performed by the FLIPR Penta system. After a 10-min equilibration period, the baseline BRET signal was determined by five consecutive reads followed by automatic administration of 10 μL of 10× ligand (Table 1) to the cell plate. Changes in the BRET signal was measured for 10 min, with each read spaced by 2.5 s. […] BRET ratios were extracted from ScreenWorks software (Molecular Devices) and represent the ratio between the acceptor emission of […]2 or mNG (G protein or β-arrestin recruitment, respectively) and NLuc donor emission. The basal BRET ratio was defined as the average BRET ratio of the five consecutive readings preceding ligand addition. Changes in BRET values post ligand administration (ΔBRET) were calculated for each well as a percentage difference to the previously defined basal BRET ratio. Average ΔBRET values were baseline corrected by subtracting the average negative control BRET ratio (unstimulated condition). […] AUCs were normalized to the positive control (stimulated condition); whereafter, dose-response curves were fitted to log (inhibitor) vs response (three parameters) in GraphPad 10.2.0 (GraphPad Software). […] Calculation 1: calculation of the BRET signal. • 1. […] NC correctedΔBRET=Δ[…]. • 4. a. Neg AUC of NC correctedΔBRET=Gα activation read out. b. Pos AUC of NC correctedΔBRET=β-arrestin recruitment.

CXCR2 [4] = target: T1, CXCR2; design: method as in Boon et al., 2024; conditions: agonist concentration used in NanoBRET assays; ref Boon et al., 2024; cited from earlier work
CXCR2 [5] = target: T1, CXCR2; design: method as in Boon et al., 2024; conditions: agonist concentration used in NanoBRET assays; ref Boon et al., 2024; cited from earlier work; remark: listed apart in the source

- Imax βarr1 (maximum observed inhibitory effect) (CXCR2 [1]; CXCL1 at EC80): 100%
- Imax βarr1 (maximum observed inhibitory effect) (CXCR2 [1]; CXCL2 at EC80): 100%
- Imax βarr1 (maximum observed inhibitory effect) (CXCR2 [1]; CXCL3 at EC80): 100%
- Imax βarr1 (maximum observed inhibitory effect) (CXCR2 [1]; CXCL5 at EC80): 100%
- Imax βarr1 (maximum observed inhibitory effect) (CXCR2 [1]; CXCL6 at EC80): 100%
- Imax βarr1 (maximum observed inhibitory effect) (CXCR2 [1]; CXCL7 at EC80): 100%
- Imax βarr1 (maximum observed inhibitory effect) (CXCR2 [1]; CXCL8 at EC80): 100%
- Imax Gαi1 (maximum observed inhibitory effect) (CXCR2 [3]; CXCL1 at EC80): 100%
- Imax Gαi1 (maximum observed inhibitory effect) (CXCR2 [3]; CXCL2 at EC80): 100%
- Imax Gαi1 (maximum observed inhibitory effect) (CXCR2 [3]; CXCL3 at EC80): 98.8%
- Imax Gαi1 (maximum observed inhibitory effect) (CXCR2 [3]; CXCL5 at EC80): 95.7%
- Imax Gαi1 (maximum observed inhibitory effect) (CXCR2 [3]; CXCL6 at EC80): 100%
- Imax Gαi1 (maximum observed inhibitory effect) (CXCR2 [3]; CXCL7 at EC80): 100%
- Imax Gαi1 (maximum observed inhibitory effect) (CXCR2 [3]; CXCL8 at EC80): 98.5%
Molecule: C[C@H](CO)Nc1nc(SCc2cccc(Cl)c2F)nc2[nH]c(=O)sc12 [AZ10397767, reference compound]
- bias profile (bias plot), β-arrestin1 recruitment inhibition vs Gαi1 activation inhibition (CXCR2 [2]): bias toward the inhibition of β-arrestin1 recruitment

B1: CXCL7: recombinant human ELR+ chemokine, CXCR2 ligand (PeproTech) (protein, UniProt P02775 59-128, looked up)
Neutrophil-activating peptide …: AELRCMCIKTTSGIHPKNIQSLEVIGKGTHCNQVEVIATLKDGRKICLDPDAPRIKKIVQKKLAGDESAD
modifications: Neutrophil-activating peptide 2
- β-arrestin EC80 (CXCR2 [4]): 100.70 nM
- G-protein EC80 (CXCR2 [5]): 4.09 nM
